The record followed here is patent US20230107642A1 (Erasca, Inc., priority 2020, published 2023).

The data set is described as follows: Determination of total drug concentration in rat brain (BBB penetration). It counts as in vivo. The note with it: male SD rat, 2 mg/kg IV infusion for 4 hours, brain collected at end of 4 hours. On the procedure: BB. Example 9: Determination of Total Drug Concentration in Rat Brain
In Vivo Experimental Procedures
Infuse male SD rat at 2 mg/kg dose for 4 hours through IV administration route. Collect brain tissues at the end of 4 hours.
Sample Preparation Procedures
Dilute brain tissue by adding homogenization solvent (1:4, w/v). Homogenize diluted brain tissue samples. Extract analyte by adding organic solvent (1:4, v/v) with spiked internal standard. Vortex and centrifuge the samples. Remove supernatant and dilute with HPLC compatible solvent (1:3, v/v).
Inject diluted extract into LC-MS/MS system using reversed phase high performance liquid chromatography coupled with electrospray ionization and selected reaction monitoring. Determine the total drug concentration in brain samples by quantitating against the standard curve prepared using the same matrix.
The following data provides blood brain barrier (BBB) penetration activity for a selection of inventive compounds where were directly compared to sotorasib and adagrasib (concentration in brain measured in ng/g).
Compounds that were measured as having a total concentration in the brain of at least 60 ng/g are indicated as “+”.
Take `C=CC(=O)N1[C@H](C)CN(c2nc(=O)n3c4c(c(-c5ccc(F)cc5)c(C(F)(F)F)cc24)SC[C@@H](OCC)C3)C[C@@H]1C` [Example 13-55]: the BBB activity result is “− (Compounds that did not meet this threshold are indicated as “−”)”. With `C=CC(=O)N1[C@H](C)CN(c2nc(=O)n3c4c(c(-c5ccccc5)c(C(F)(F)F)cc24)SC[C@@H]3COC)C[C@@H]1C` [Example 13-20] the entry was “+ (Compounds that were measured as having a total concentration in the brain of at least 60 ng/g are indicated as “+”)”; with `C=CC(=O)N1C[C@H](C)N(c2nc(=O)n3c4c(c(-c5ccc(F)cc5F)c(Cl)cc24)OC[C@H]3CCCN2C[C@H]3C[C@@H]2CO3)C[C@H]1C` [Example 13-76], “− (Compounds that did not meet this threshold are indicated as “−”)”; with `C=CC(=O)N1[C@H](C)CN(c2nc(=O)n3c4c(c(-c5ccc(F)cc5)c(C(F)(F)F)cc24)SC[C@@H](OCC2CC2)C3)C[C@@H]1C` [Example 13-48], “− (Compounds that did not meet this threshold are indicated as “−”)”. As for `C=CC(=O)N1CCN(c2nc(=O)n3c4c(c(-c5ccc(F)cc5F)c(C(F)(F)F)cc24)SC[C@H](OC)C3)CC1` [Example 13-37], the BBB activity entry was “+ (Compounds that were measured as having a total concentration in the brain of at least 60 ng/g are indicated as “+”)”. Turning to `C=CC(=O)N1[C@H](C)CN(c2nc(=O)n3c4c(c(-c5cc(Cl)c(F)cc5F)c(C(F)(F)F)cc24)SC[C@@H]3CC)C[C@@H]1C` (atropisomer, axis not shown) [Example 13-8], the BBB activity entry is “+ (Compounds that were measured as having a total concentration in the brain of at least 60 ng/g are indicated as “+”)”. The value for `C=C(F)C(=O)N1CCN(c2nc(OC[C@H]3CCCN3C)nc3c2CCN(c2cccc4cccc(Cl)c24)C3)C[C@@H]1CC#N` [Example 13-75] was “− (Compounds that did not meet this threshold are indicated as “−”)”; that for `C=CC(=O)N1CCN(c2nc(=O)n3c4c(c(-c5cc(Cl)c(F)cc5F)c(C(F)(F)F)cc24)SC[C@@H]3COC)CC1` [Example 13-5] was “+ (Compounds that were measured as having a total concentration in the brain of at least 60 ng/g are indicated as “+”)”; that for `C=CC(=O)N1[C@H](C)CN(c2nc(=O)n3c4c(c(-c5ccc(Cl)cc5F)c(C(F)(F)F)cc24)SC[C@@H]3COC)C[C@@H]1C` (atropisomer, axis not shown) [Example 13-3] was “+ (Compounds that were measured as having a total concentration in the brain of at least 60 ng/g are indicated as “+”)”. With `C=CC(=O)N1[C@H](C)CN(c2nc(=O)n3c4c(c(-c5ccc(F)cc5)c(Cl)cc24)SC[C@@H](OC)C3)C[C@@H]1C` [Example 13-69] the entry was “− (Compounds that did not meet this threshold are indicated as “−”)”. The value for `C=CC(=O)N1C[C@H](C)N(c2nc(=O)n3c4c(c(-c5ccc(F)cc5F)c(C(F)(F)F)cc24)SCC2(COC2)C3)C[C@H]1C` [Example 13-51] was “− (Compounds that did not meet this threshold are indicated as “−”)”; that for `C=CC(=O)N1[C@H](C)CN(c2nc(=O)n3c4c(c(-c5ccc(F)cc5)c(C(F)(F)F)cc24)SC[C@@H](OCCF)C3)C[C@@H]1C` [Example 13-64] was “− (Compounds that did not meet this threshold are indicated as “−”)”. Take `C=CC(=O)N1[C@H](C)CN(c2nc(=O)n3c4c(c(-c5ccc(F)cc5F)c(C(F)(F)F)cc24)SCC2(COC2)C3)C[C@@H]1C` [Example 13-87]: the BBB activity result was “− (Compounds that did not meet this threshold are indicated as “−”)”. For the compound `C=CC(=O)N1[C@H](C)CN(c2nc(=O)n3c4c(c(-c5cc(Br)c(F)cc5F)c(C(F)(F)F)cc24)SC[C@@H](OC)C3)C[C@@H]1C` (atropisomer, axis not shown) [Example 13-70], the BBB activity result was “− (Compounds that did not meet this threshold are indicated as “−”)”.
